Measurements from the NIST ThermoML archive (doi:10.1016/j.jct.2016.07.001).
Numbers after ± are expanded uncertainties.

Key:
[1] = Crystal; DTA
[2] = Molar enthalpy of transition or fusion; details: Crystal; DSC

O=S(=O)(c1ccc(O)cc1)c1ccccc1O [2,4'-dihydroxydiphenyl sulfone]
Normal melting temperature [1]: 182.20 ± 1.1 °C
Molar enthalpy of transition or fusion [2]: 42.8 ± 1.1 kJ/mol
